1 compound from PMC5218480 (PLoS ONE, 2017) can be followed below.

The test system of this assay is MV-4-11 cells. Description: Gene expression microarray analysis (Affymetrix PrimeView) and GSEA. It is filed as cell-based, human. The conditions noted are these: ProbeSet 11732370_a_at; LIST D. Further details: RFU PODN (11730768_x_at) / Fold change /veh PODN (11730768_x_at) / RFU LINC00158 (11744669_a_at) / Fold change /veh LINC00158 (11744669_a_at) / RFU DUSP10 (11751237_a_at) / Fold change /veh DUSP10 (11751237_a_at) / RFU ID3 (11757404_x_at) / Fold change /veh ID3 (11757404_x_at) / RFU PLEKHG5 (11737974_s_at) / Fold change /veh PLEKHG5 (11737974_s_at) / RFU LRRC4B (11730491_at) / Fold change /veh LRRC4B (11730491_at) / RFU GIMAP4 (11747438_a_at) / Fold change /veh GIMAP4 (11747438_a_at) / RFU KRT8 (11758183_x_at) / Fold change /veh KRT8 (11758183_x_at) / RFU CNN1 (11734310_a_at) / Fold change /veh CNN1 (11734310_a_at) / RFU VPS37D (11726825_at) / Fold change /veh VPS37D (11726825_at) / RFU C10orf10 (11716522_x_at) / Fold change /veh C10orf10 (11716522_x_at) / RFU KIR2DL2 /// KIR2DL4 /// KIR2DL5A /// KIR2DL5B /// KIR2DS1 /// KIR2DS2 /// KIR2DS3 /// KIR2DS4 /// KIR3DL3 /// KIR3DL3 /// KIR3DS1 (11738374_at) / Fold change /veh KIR2DL2 /// KIR2DL4 /// KIR2DL5A /// KIR2DL5B /// KIR2DS1 /// KIR2DS2 /// KIR2DS3 /// KIR2DS4 /// KIR3DL3 /// KIR3DL3 /// KIR3DS1 (11738374_at) / RFU C1QL1 (11718748_at) / Fold change /veh C1QL1 (11718748_at) / RFU TMPRSS4 (11747572_a_at) / Fold change /veh TMPRSS4 (11747572_a_at) / RFU HAMP (11756126_x_at) / Fold change /veh HAMP (11756126_x_at) / RFU RNFT2 (11725882_a_at) / Fold change /veh RNFT2 (11725882_a_at) / RFU NR4A2 (11747474_a_at) / Fold change /veh NR4A2 (11747474_a_at) / RFU ABCC12 (11746883_a_at) / Fold change /veh ABCC12 (11746883_a_at) / RFU TMEM136 (11760407_x_at) / Fold change /veh TMEM136 (11760407_x_at) / RFU CLDN22 /// WWC2 (11732394_at) / Fold change /veh CLDN22 /// WWC2 (11732394_at) / RFU HLA-DPB1 (11760878_x_at) / Fold change /veh HLA-DPB1 (11760878_x_at) / RFU SPINT1 (11716480_a_at) / Fold change /veh SPINT1 (11716480_a_at) / RFU GAP43 (11754022_s_at) / Fold change /veh GAP43 (11754022_s_at) / RFU A4GNT (11735810_at) / Fold change /veh A4GNT (11735810_at) / RFU PRB3 (11715151_x_at) / Fold change /veh PRB3 (11715151_x_at) / RFU TUBB4B (11761932_at) / Fold change /veh TUBB4B (11761932_at) / RFU CAPN14 (11732068_a_at) / Fold change /veh CAPN14 (11732068_a_at) / RFU TMCC2 (11721928_a_at) / Fold change /veh TMCC2 (11721928_a_at) / RFU IRGQ (11745062_a_at) / Fold change /veh IRGQ (11745062_a_at) / RFU FAM174B (11720279_a_at) / Fold change /veh FAM174B (11720279_a_at) / RFU TMPRSS4 (11748680_a_at) / Fold change /veh TMPRSS4 (11748680_a_at) / RFU FAM212B (11763350_a_at) / Fold change /veh FAM212B (11763350_a_at) / RFU PLEKHG5 (11743358_a_at) / Fold change /veh PLEKHG5 (11743358_a_at) / RFU ZSCAN30 (11745921_a_at) / Fold change /veh ZSCAN30 (11745921_a_at) / RFU CMKLR1 (11741424_a_at) / Fold change /veh CMKLR1 (11741424_a_at) / RFU LOC101060620 /// MAPK8IP1 (11723275_at) / Fold change /veh LOC101060620 /// MAPK8IP1 (11723275_at) / RFU SPTSSB (11747773_x_at) / Fold change /veh SPTSSB (11747773_x_at) / RFU PRSS12 (11739890_at) / Fold change /veh PRSS12 (11739890_at) / RFU BIN1 (11741810_x_at) / Fold change /veh BIN1 (11741810_x_at) / RFU WNT11 (11732464_a_at) / Fold change /veh WNT11 (11732464_a_at) / RFU C10orf10 (11716521_a_at) / Fold change /veh C10orf10 (11716521_a_at) / RFU C5orf56 (11738089_at) / Fold change /veh C5orf56 (11738089_at) / RFU CYB561 (11721691_x_at) / Fold change /veh CYB561 (11721691_x_at) / RFU ANKRD19P (11752326_a_at) / Fold change /veh ANKRD19P (11752326_a_at) / RFU OR2T12 /// OR2T33 /// OR2T8 (11738714_s_at) / Fold change /veh OR2T12 /// OR2T33 /// OR2T8 (11738714_s_at) / RFU VCAN (11748164_a_at) / Fold change /veh VCAN (11748164_a_at) / RFU JSRP1 (11732532_at) / Fold change /veh JSRP1 (11732532_at) / RFU KRTAP10-11 (11738290_x_at) / Fold change /veh KRTAP10-11 (11738290_x_at) / RFU MYO3A (11730013_a_at) / Fold change /veh MYO3A (11730013_a_at) / RFU EBF3 (11725865_a_at) / Fold change /veh EBF3 (11725865_a_at) / RFU CAMK2N1 (11719241_x_at) / Fold change /veh CAMK2N1 (11719241_x_at) / RFU C5orf56 (11738088_a_at) / Fold change /veh C5orf56 (11738088_a_at) / RFU OLFML3 (11715873_a_at) / Fold change /veh OLFML3 (11715873_a_at) / RFU LOC100653217 /// NTM (11731650_a_at) / Fold change /veh LOC100653217 /// NTM (11731650_a_at) / RFU MAPK11 (11762145_a_at) / Fold change /veh MAPK11 (11762145_a_at) / RFU FIZ1 (11724087_x_at) / Fold change /veh FIZ1 (11724087_x_at) / RFU OASL (11726364_x_at) / Fold change /veh OASL (11726364_x_at) / RFU SOX15 (11748057_x_at) / Fold change /veh SOX15 (11748057_x_at) / RFU CD79A (11719716_a_at) / Fold change /veh CD79A (11719716_a_at) / RFU HIST1H1D (11736915_at) / Fold change /veh HIST1H1D (11736915_at) / RFU CASKIN2 (11723855_a_at) / Fold change /veh CASKIN2 (11723855_a_at) / RFU LOC730098 (11760151_x_at) / Fold change /veh LOC730098 (11760151_x_at) / RFU OR4N2 (11742367_at) / Fold change /veh OR4N2 (11742367_at) / RFU PRRT2 (11749266_a_at) / Fold change /veh PRRT2 (11749266_a_at) / RFU SNX32 (11753110_a_at) / Fold change /veh SNX32 (11753110_a_at) / RFU CDHR5 (11726645_a_at) / Fold change /veh CDHR5 (11726645_a_at) / RFU RCAN1 (11760418_a_at) / Fold change /veh RCAN1 (11760418_a_at) / RFU FAM167A (11723789_a_at) / Fold change /veh FAM167A (11723789_a_at) / RFU FAM26E (11764081_at) / Fold change /veh FAM26E (11764081_at) / RFU ISYNA1 (11749810_s_at) / Fold change /veh ISYNA1 (11749810_s_at) / RFU ACY1 (11761880_at) / Fold change /veh ACY1 (11761880_at) / RFU 11764098_at / Fold change /veh 11764098_at / RFU SAMD14 (11745864_x_at) / Fold change /veh SAMD14 (11745864_x_at) / RFU NPB (11741838_a_at) / Fold change /veh NPB (11741838_a_at) / RFU TMPRSS6 (11731388_a_at) / Fold change /veh TMPRSS6 (11731388_a_at) / RFU KRTAP10-2 (11738614_at) / Fold change /veh KRTAP10-2 (11738614_at) / RFU ARHGAP8 /// PRR5-ARHGAP8 (11727945_x_at) / Fold change /veh ARHGAP8 /// PRR5-ARHGAP8 (11727945_x_at) / RFU KRTAP5-7 /// NADSYN1 (11734609_at) / Fold change /veh KRTAP5-7 /// NADSYN1 (11734609_at) / RFU RASL12 (11751679_a_at) / Fold change /veh RASL12 (11751679_a_at) / RFU CDKN2B (11736163_a_at) / Fold change /veh CDKN2B (11736163_a_at) / RFU PRF1 (11729649_at) / Fold change /veh PRF1 (11729649_at) / RFU, ZNF638 /// ZNF638-IT1 / Fold change vs veh, ZNF638 /// ZNF638-IT1 / RFU, PANK3 / Fold change vs veh, PANK3 / RFU, SH3YL1 / Fold change vs veh, SH3YL1 / RFU, ZEB2 / Fold change vs veh, ZEB2 / RFU, NRIP1 / Fold change vs veh, NRIP1 / RFU, PTTG1IP / Fold change vs veh, PTTG1IP / RFU, CAPN2 / Fold change vs veh, CAPN2 / RFU, MED14 / Fold change vs veh, MED14 / RFU, SNORA58 / Fold change vs veh, SNORA58 / RFU, C1orf63 / Fold change vs veh, C1orf63 / RFU, LRRFIP1 / Fold change vs veh, LRRFIP1 / RFU, NDUFAF7 / Fold change vs veh, NDUFAF7 / RFU, SLC12A2 / Fold change vs veh, SLC12A2 / RFU, IBTK / Fold change vs veh, IBTK / RFU, ESF1 / Fold change vs veh, ESF1 / Fold change vs veh, TMEM50B / RFU, TAOK1 / Fold change vs veh, TAOK1 / RFU, ACBD3 / Fold change vs veh, ACBD3 / RFU, TMA16 / Fold change vs veh, TMA16 / RFU, RWDD3 / Fold change vs veh, RWDD3 / RFU, BCAT1 / Fold change vs veh, BCAT1 / RFU, EDEM3 / Fold change vs veh, EDEM3 / RFU, TMEM33 / Fold change vs veh, TMEM33 / RFU, WDR75 / Fold change vs veh, WDR75 / RFU, AHCTF1 / Fold change vs veh, AHCTF1 / RFU, TFRC / Fold change vs veh, TFRC / RFU, ZDHHC17 / Fold change vs veh, ZDHHC17 / RFU, NOM1 / Fold change vs veh, NOM1 / RFU, ARL8B / Fold change vs veh, ARL8B / RFU, ZBTB11 / Fold change vs veh, ZBTB11 / RFU, TAMM41 / Fold change vs veh, TAMM41 / RFU, KIAA1704 /// LOC100996395 / Fold change vs veh, KIAA1704 /// LOC100996395 / RFU, ING1 / Fold change vs veh, ING1 / RFU, TRMT61B / Fold change vs veh, TRMT61B / RFU, FUBP3 / Fold change vs veh, FUBP3 / RFU, TP53 / Fold change vs veh, TP53 / RFU, TNKS2 / Fold change vs veh, TNKS2 / RFU, ZFP14 / Fold change vs veh, ZFP14 / RFU, ACTR2 / Fold change vs veh, ACTR2 / RFU, PPP3R1 / Fold change vs veh, PPP3R1 / RFU, PIK3R1 / Fold change vs veh, PIK3R1 / RFU, HNRNPA1 / Fold change vs veh, HNRNPA1 / RFU, RNF170 / Fold change vs veh, RNF170 / RFU, ZNF28 / Fold change vs veh, ZNF28 / RFU, RNGTT / Fold change vs veh, RNGTT / RFU, OGT / Fold change vs veh, OGT / RFU, BRD1 / Fold change vs veh, BRD1 / RFU, MARS / Fold change vs veh, MARS / RFU, ZNF655 / Fold change vs veh, ZNF655 / RFU, FAHD1 / Fold change vs veh, FAHD1 / RFU, BDP1 / Fold change vs veh, BDP1 / RFU, LRRCC1 / Fold change vs veh, LRRCC1 / RFU, ARID1A / Fold change vs veh, ARID1A / RFU, ZNF146 / Fold change vs veh, ZNF146 / RFU, ZNF330 / Fold change vs veh, ZNF330 / RFU, GPN3 / Fold change vs veh, GPN3 / RFU, C9orf123 / Fold change vs veh, C9orf123 / RFU, N4BP2L2 / Fold change vs veh, N4BP2L2 / RFU, ARFIP1 / Fold change vs veh, ARFIP1 / RFU, FAM179B / Fold change vs veh, FAM179B / RFU, BCL10 / Fold change vs veh, BCL10 / RFU, UHRF1BP1L / Fold change vs veh, UHRF1BP1L / RFU, BET1 / Fold change vs veh, BET1 / RFU, CNOT2 / Fold change vs veh, CNOT2 / RFU, ZNF268 / Fold change vs veh, ZNF268 / Fold change vs veh, ZNF507 / RFU, DGCR2 / Fold change vs veh, DGCR2 / RFU, WDSUB1 / Fold change vs veh, WDSUB1 / Fold change vs veh, HSP90B1 /// MIR3652 / RFU, ADSS / Fold change vs veh, ADSS / RFU, GK / Fold change vs veh, GK / RFU, ZNF148 / Fold change vs veh, ZNF148 / RFU, TAF9 / Fold change vs veh, TAF9 / RFU, SLC1A5 / Fold change vs veh, SLC1A5 / RFU, SLMO2 / Fold change vs veh, SLMO2 / RFU, ABCC4 / Fold change vs veh, ABCC4 / RFU, LOC101060439 /// RAP1B / Fold change vs veh, LOC101060439 /// RAP1B / RFU, RFX7 / Fold change vs veh, RFX7 / RFU, GTPBP10 / Fold change vs veh, GTPBP10 / RFU, CNEP1R1 / Fold change vs veh, CNEP1R1 / RFU, BIVM-ERCC5 /// ERCC5 / Fold change vs veh, BIVM-ERCC5 /// ERCC5 / RFU, ILF3 / Fold change vs veh, ILF3 / RFU 11762660_at / Fold change /veh 11762660_at / RFU VCAN (11757783_s_at) / Fold change /veh VCAN (11757783_s_at) / RFU DDX43 (11728927_at) / Fold change /veh DDX43 (11728927_at) / RFU KRT8 (11758188_x_at) / Fold change /veh KRT8 (11758188_x_at) / RFU NKD1 (11759106_at) / Fold change /veh NKD1 (11759106_at) / RFU SRD5A1 (11742802_a_at) / Fold change /veh SRD5A1 (11742802_a_at) / RFU TPSAB1 /// TPSB2 (11721975_s_at) / Fold change /veh TPSAB1 /// TPSB2 (11721975_s_at) / RFU GSTM3 (11746129_a_at) / Fold change /veh GSTM3 (11746129_a_at) / RFU IL23R (11737362_x_at) / Fold change /veh IL23R (11737362_x_at) / RFU TMEM51 (11727254_a_at) / Fold change /veh TMEM51 (11727254_a_at) / RFU PIWIL2 (11732686_x_at) / Fold change /veh PIWIL2 (11732686_x_at) / RFU ORM1 (11744905_x_at) / Fold change /veh ORM1 (11744905_x_at) / RFU CCDC152 (11743942_at) / Fold change /veh CCDC152 (11743942_at) / RFU ECM1 (11717891_a_at) / Fold change /veh ECM1 (11717891_a_at) / RFU IL23R (11748794_a_at) / Fold change /veh IL23R (11748794_a_at) / RFU TNFAIP8L3 (11732012_x_at) / Fold change /veh TNFAIP8L3 (11732012_x_at) / RFU MBOAT4 (11741988_at) / Fold change /veh MBOAT4 (11741988_at) / RFU 11764193_at / Fold change /veh 11764193_at / RFU TMEM53 (11763286_at) / Fold change /veh TMEM53 (11763286_at) / RFU MAGEB2 (11727129_at) / Fold change /veh MAGEB2 (11727129_at) / RFU TMEM200A (11744735_a_at) / Fold change /veh TMEM200A (11744735_a_at) / RFU CCDC152 (11751479_a_at) / Fold change /veh CCDC152 (11751479_a_at) / RFU FAM211A (11726209_a_at) / Fold change /veh FAM211A (11726209_a_at) / RFU RGS16 (11746705_a_at) / Fold change /veh RGS16 (11746705_a_at) / RFU VCAN (11755009_s_at) / Fold change /veh VCAN (11755009_s_at) / RFU RHOB (11743442_s_at) / Fold change /veh RHOB (11743442_s_at) / RFU RGS16 (11720943_a_at) / Fold change /veh RGS16 (11720943_a_at) / RFU RGS16 (11720944_at) / Fold change /veh RGS16 (11720944_at) / RFU, VPS4B / Fold change vs veh, VPS4B / RFU, CREB1 / Fold change vs veh, CREB1 / RFU, DNAJC13 / Fold change vs veh, DNAJC13 / RFU, GNAQ / Fold change vs veh, GNAQ / RFU, CDK5R1 / Fold change vs veh, CDK5R1 / RFU, ZRANB3 / Fold change vs veh, ZRANB3 / RFU, CUL4A / Fold change vs veh, CUL4A / RFU, CCNY / Fold change vs veh, CCNY / RFU, UFL1 / Fold change vs veh, UFL1 / RFU, COG3 / Fold change vs veh, COG3 / RFU, DIAPH2 / Fold change vs veh, DIAPH2 / RFU, SKA2 / Fold change vs veh, SKA2 / RFU, AFF3 / Fold change vs veh, AFF3 / RFU, LMF1 / Fold change vs veh, LMF1 / RFU, IPO11 / Fold change vs veh, IPO11 / RFU, DFFB / Fold change vs veh, DFFB / RFU, FOXP1 / Fold change vs veh, FOXP1 / RFU, CARD8 / Fold change vs veh, CARD8 / RFU, STRN3 / Fold change vs veh, STRN3 / RFU, ADK / Fold change vs veh, ADK / RFU, RASSF2 / Fold change vs veh, RASSF2 / RFU, WIPF1 / Fold change vs veh, WIPF1 / RFU, LARP1B / Fold change vs veh, LARP1B / RFU, RASA1 / Fold change vs veh, RASA1 / RFU, RB1 / Fold change vs veh, RB1 / RFU, PPFIA1 / Fold change vs veh, PPFIA1 / RFU, MAT2A / Fold change vs veh, MAT2A / RFU, CCT5 / Fold change vs veh, CCT5 / RFU, WDR92 / Fold change vs veh, WDR92 / RFU, CUX1 / Fold change vs veh, CUX1 / RFU, TTC7A / Fold change vs veh, TTC7A / RFU, TMEM135 / Fold change vs veh, TMEM135 / RFU, DEPTOR / Fold change vs veh, DEPTOR / RFU, CPM / Fold change vs veh, CPM / RFU, DNAJB6 / Fold change vs veh, DNAJB6 / RFU, CACNA2D3 / Fold change vs veh, CACNA2D3 / RFU, DTX4 / Fold change vs veh, DTX4 / RFU, TFCP2 / Fold change vs veh, TFCP2 / RFU, GMCL1 /// GMCL1P1 / Fold change vs veh, GMCL1 /// GMCL1P1 / RFU, AEBP2 / Fold change vs veh, AEBP2 / RFU, SNHG1 /// SNORD22 /// SNORD25 /// SNORD26 /// SNORD27 /// SNORD28 /// SNORD29 /// SNORD31 / Fold change vs veh, SNHG1 /// SNORD22 /// SNORD25 /// SNORD26 /// SNORD27 /// SNORD28 /// SNORD29 /// SNORD31 / Fold change (Aza/veh), C12orf56 (ProbeSet 11735607_a_at) / Fold change (ACY-1035/veh), C12orf56 (ProbeSet 11735607_a_at) / Fold change (Aza/veh), FGFR1OP (ProbeSet 11751329_s_at) / Fold change (ACY-1035/veh), FGFR1OP (ProbeSet 11751329_s_at) / Fold change (Aza/veh), VPS36 (ProbeSet 11739960_a_at) / Fold change (ACY-1035/veh), VPS36 (ProbeSet 11739960_a_at) / RFU SYPL1 (11715823_x_at) / Fold change /veh SYPL1 (11715823_x_at) / RFU IGFBP7 (11715501_s_at) / Fold change /veh IGFBP7 (11715501_s_at) / RFU REEP3 (11722064_at) / Fold change /veh REEP3 (11722064_at) / RFU IGLL1 (11728026_x_at) / Fold change /veh IGLL1 (11728026_x_at): dose or concentration left out as unconfirmed.

For the compound `Nc1ccc(-c2cccs2)cc1NC(=O)c1ccc2c(c1)cc(C1CC1)n2CCN1CCOCC1` [ACY-1035], the “Fold change vs veh, CUX1” value is listed as 0.84.
